Measured values as given in patent publication US12129235B2, “TSPO binders” (The University Court of the University of Glasgow, priority 2018, dated 2024).

Tests used:
[1] = molecular target: TSPO (Homo sapiens, UniProt P30536); assay: ^18F-LW223 human autoradiography (stroke and diseased coronary tissue); type: binding; set-up: Paraffin embedded human deep brain stoke tissue and diseased coronary tissue sections; from tissue; host or cells: human deep brain stroke tissue and diseased coronary tissue sections
Source text: Slides were washed twice with buffer before being air dried and exposed to a Fujifilm BAS-IP MS 2040 phosphor screen (Fujifilm, Japan). Phosphor screens were imaged on a Fujifilm FLA5100 imaging plate reader (Fujifilm, Japan). Global regions of interest were drawn around whole tissue sections to calculate % SB. To calculate target:non-target ratios, regional sampling analysis was used within the same tissue in the highest and lowest uptake areas.

[2] = Dosimetry from whole-body mouse PET, OLINDA/EXM adult human phantom; type: in vivo, mice; conditions: for Effective Dose / Estimated Absorbed Dose, Adrenals / Estimated Absorbed Dose, Brain / Estimated Absorbed Dose, Breasts / Estimated Absorbed Dose, Gallbladder Wall / Estimated Absorbed Dose, Heart Wall / Estimated Absorbed Dose, Kidneys / Estimated Absorbed Dose, LLI Wall / Estimated Absorbed Dose, Liver / Estimated Absorbed Dose, Lungs / Estimated Absorbed Dose, Muscle / Estimated Absorbed Dose, Osteogenic Cells / Estimated Absorbed Dose, Ovaries / Estimated Absorbed Dose, Pancreas / Estimated Absorbed Dose, Red Marrow / Estimated Absorbed Dose, Skin / Estimated Absorbed Dose, Small Intestine / Estimated Absorbed Dose, Spleen / Estimated Absorbed Dose, Stomach Wall / Estimated Absorbed Dose, Thymus / Estimated Absorbed Dose, Thyroid / Estimated Absorbed Dose, Total Body / Estimated Absorbed Dose, ULI Wall / Estimated Absorbed Dose, Urinary Bladder Wall / Estimated Absorbed Dose, Uterus / Estimated Absorbed Dose, Testes: adult human phantom
Protocol: 13 PET scans were performed with ^18F-LW223 (mean injected radioactivity of 19.55±2.1 MBq). Scans were acquired following i.v. bolus injection of ^18F-LW223 via tail vein or femoral vein shunt (invasive kinetic modelling experiments with β-probe automatic blood sampler) in rats. Test-retest scans were obtained in three rats following i.v. bolus of the radiotracer, with two weeks interval between test and retest imaging sessions. […] These scans were compared to baseline scans where no PK11195 was used. For displacement studies, rats received i.v. administration of ^18F-LW223 and scanned continuously for 120 min. […] A male and female mouse were initially used to derive the dosimetry estimates for ^18F-LW223 over a 4 h dynamic scan, followed by additional mice in a further study (in a study with a mean injected radioactivity of 10.83±5.6 MBq).
The following organs were identified as source organs: brain, heart, lungs, gallbladder, liver, gut, adrenals, kidneys and bladder. A whole-body VOI was drawn around the animal body and was used for quantification of whole-body remainder activity as whole-body activity minus source organs activity. At each time point, the measured activity of the source organs was expressed as the percent injected dose (% ID).
The residence time T, defined as the ratio of accumulated activity in the target organ (A) and injected activity (A0); τ=Ā/A0, was calculated as the area under the curve of the tissue time-activity curve normalized to % ID from time zero to infinity. The trapezoidal method was used for estimating T and after the last measured time point, it was assumed that the radiotracer underwent only physical decay with no biological elimination from the source organ. Calculated T were normalized for differences in mouse and human organ weights as a percentage of total body weight (based on data known from Khanuja et al.; Bielohuby et al.; Stabin et al.; Hindorf et al.; and Hui et al.), and entered into OLINDA/EXM 1.0 software, which was used to estimate organ doses and effective doses according to the male or female model implemented in OLINDA/EXM 1.0.

[3] = Female, additional work with further mice
[4] = Male, additional work with further mice

TSPO, sequence (P30536 whole entry): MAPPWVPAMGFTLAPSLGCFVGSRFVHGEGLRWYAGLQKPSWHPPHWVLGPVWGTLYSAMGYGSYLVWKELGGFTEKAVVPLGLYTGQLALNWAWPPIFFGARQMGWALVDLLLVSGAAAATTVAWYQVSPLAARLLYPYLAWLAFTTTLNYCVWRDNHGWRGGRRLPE

## CC[C@@H](C)N(C)C(=O)c1nc2ccccc2c(-c2ccccc2)c1C[18F] [^18F-LW223, (R)-(N-sec-Butyl)-3-[19-fluoro]-methyl-N-methyl-4-phenylquinoline-2-carboxamide]
[1]; deep brain stroke tissue, blocking with PK11195 30 μM
  blocking of ^18F-LW223 binding: could not be sufficiently blocked
[1]; diseased coronary tissue
  target:non-target ratio: 4.5
[1]; diseased coronary tissue, blocking with LW223 10 μM
  % specific binding (% SB): 88.1±3.4%
[1]; diseased coronary tissue, blocking with PK11195 10 μM
  % specific binding (% SB): 75.3±3.2%
[1]; stroke tissue
  target:non-target ratio: 7.5
[1]; stroke tissue, blocking with LW223 10 μM
  % specific binding (% SB): 42.5±7.0%
[2]; [3]
  Effective Dose: 2.37E−02 mSv/MBq
  Estimated Absorbed Dose, Adrenals: 3.54E−02 mGy/MBq
  Estimated Absorbed Dose, Brain: 5.49E−03 mGy/MBq
  Estimated Absorbed Dose, Breasts: 8.51E−03 mGy/MBq
  Estimated Absorbed Dose, Gallbladder Wall: 2.40E−02 mGy/MBq
  Estimated Absorbed Dose, Heart Wall: 1.80E−02 mGy/MBq
  Estimated Absorbed Dose, Kidneys: 1.48E−02 mGy/MBq
  Estimated Absorbed Dose, LLI Wall: 8.94E−02 mGy/MBq
  Estimated Absorbed Dose, Liver: 1.88E−02 mGy/MBq
  Estimated Absorbed Dose, Lungs: 3.10E−02 mGy/MBq
  Estimated Absorbed Dose, Muscle: 9.70E−03 mGy/MBq
  Estimated Absorbed Dose, Osteogenic Cells: 1.52E−02 mGy/MBq
  Estimated Absorbed Dose, Ovaries: 1.63E−02 mGy/MBq
  Estimated Absorbed Dose, Pancreas: 1.25E−02 mGy/MBq
  Estimated Absorbed Dose, Red Marrow: 9.72E−03 mGy/MBq
  Estimated Absorbed Dose, Skin: 7.33E−03 mGy/MBq
  Estimated Absorbed Dose, Small Intestine: 1.29E−02 mGy/MBq
  Estimated Absorbed Dose, Spleen: 1.10E−02 mGy/MBq
  Estimated Absorbed Dose, Stomach Wall: 1.14E−02 mGy/MBq
  Estimated Absorbed Dose, Thymus: 1.06E−02 mGy/MBq
  Estimated Absorbed Dose, Thyroid: 8.89E−03 mGy/MBq
  Estimated Absorbed Dose, Total Body: 1.06E−02 mGy/MBq
  Estimated Absorbed Dose, ULI Wall: 1.24E−02 mGy/MBq
  Estimated Absorbed Dose, Urinary Bladder Wall: 1.49E−02 mGy/MBq
  Estimated Absorbed Dose, Uterus: 1.28E−02 mGy/MBq
[2]; Female, initial mouse study
  Effective Dose: 1.84E−02 mSv/MBq
  Estimated Absorbed Dose, Adrenals: 4.38E−02 mGy/MBq
  Estimated Absorbed Dose, Brain: 8.38E−03 mGy/MBq
  Estimated Absorbed Dose, Breasts: 1.16E−02 mGy/MBq
  Estimated Absorbed Dose, Gallbladder Wall: 2.80E−02 mGy/MBq
  Estimated Absorbed Dose, Heart Wall: 3.96E−02 mGy/MBq
  Estimated Absorbed Dose, Kidneys: 2.67E−02 mGy/MBq
  Estimated Absorbed Dose, LLI Wall: 1.61E−02 mGy/MBq
  Estimated Absorbed Dose, Liver: 2.04E−02 mGy/MBq
  Estimated Absorbed Dose, Lungs: 4.52E−02 mGy/MBq
  Estimated Absorbed Dose, Muscle: 1.27E−02 mGy/MBq
  Estimated Absorbed Dose, Osteogenic Cells: 2.01E−02 mGy/MBq
  Estimated Absorbed Dose, Ovaries: 1.71E−02 mGy/MBq
  Estimated Absorbed Dose, Pancreas: 1.68E−02 mGy/MBq
  Estimated Absorbed Dose, Red Marrow: 1.25E−02 mGy/MBq
  Estimated Absorbed Dose, Skin: 9.71E−03 mGy/MBq
  Estimated Absorbed Dose, Small Intestine: 3.97E−02 mGy/MBq
  Estimated Absorbed Dose, Spleen: 1.51E−02 mGy/MBq
  Estimated Absorbed Dose, Stomach Wall: 1.54E−02 mGy/MBq
  Estimated Absorbed Dose, Thymus: 1.47E−02 mGy/MBq
  Estimated Absorbed Dose, Thyroid: 1.19E−02 mGy/MBq
  Estimated Absorbed Dose, Total Body: 1.40E−02 mGy/MBq
  Estimated Absorbed Dose, ULI Wall: 1.89E−02 mGy/MBq
  Estimated Absorbed Dose, Urinary Bladder Wall: 1.51E−02 mGy/MBq
  Estimated Absorbed Dose, Uterus: 1.67E−02 mGy/MBq
[2]; [4]
  Effective Dose: 2.05E−02 mSv/MBq
  Estimated Absorbed Dose, Adrenals: 2.22E−02 mGy/MBq
  Estimated Absorbed Dose, Brain: 5.89E−03 mGy/MBq
  Estimated Absorbed Dose, Breasts: 7.18E−03 mGy/MBq
  Estimated Absorbed Dose, Gallbladder Wall: 2.01E−02 mGy/MBq
  Estimated Absorbed Dose, Heart Wall: 2.03E−02 mGy/MBq
  Estimated Absorbed Dose, Kidneys: 1.57E−02 mGy/MBq
  Estimated Absorbed Dose, LLI Wall: 7.82E−02 mGy/MBq
  Estimated Absorbed Dose, Liver: 1.30E−02 mGy/MBq
  Estimated Absorbed Dose, Lungs: 3.10E−02 mGy/MBq
  Estimated Absorbed Dose, Muscle: 8.04E−03 mGy/MBq
  Estimated Absorbed Dose, Osteogenic Cells: 1.20E−02 mGy/MBq
  Estimated Absorbed Dose, Pancreas: 1.03E−02 mGy/MBq
  Estimated Absorbed Dose, Red Marrow: 8.22E−03 mGy/MBq
  Estimated Absorbed Dose, Skin: 6.09E−03 mGy/MBq
  Estimated Absorbed Dose, Small Intestine: 1.11E−02 mGy/MBq
  Estimated Absorbed Dose, Spleen: 9.11E−03 mGy/MBq
  Estimated Absorbed Dose, Stomach Wall: 9.42E−03 mGy/MBq
  Estimated Absorbed Dose, Testes: 7.70E−03 mGy/MBq
  Estimated Absorbed Dose, Thymus: 8.97E−03 mGy/MBq
  Estimated Absorbed Dose, Thyroid: 7.90E−03 mGy/MBq
  Estimated Absorbed Dose, Total Body: 8.85E−03 mGy/MBq
  Estimated Absorbed Dose, ULI Wall: 9.96E−03 mGy/MBq
  Estimated Absorbed Dose, Urinary Bladder Wall: 1.16E−02 mGy/MBq
[2]; Male, initial mouse study
  Effective Dose: 1.53E−02 mSv/MBq
  Estimated Absorbed Dose, Adrenals: 3.72E−02 mGy/MBq
  Estimated Absorbed Dose, Brain: 7.01E−03 mGy/MBq
  Estimated Absorbed Dose, Breasts: 9.21E−03 mGy/MBq
  Estimated Absorbed Dose, Gallbladder Wall: 2.42E−02 mGy/MBq
  Estimated Absorbed Dose, Heart Wall: 3.07E−02 mGy/MBq
  Estimated Absorbed Dose, Kidneys: 2.38E−02 mGy/MBq
  Estimated Absorbed Dose, LLI Wall: 1.28E−02 mGy/MBq
  Estimated Absorbed Dose, Liver: 1.56E−02 mGy/MBq
  Estimated Absorbed Dose, Lungs: 3.57E−02 mGy/MBq
  Estimated Absorbed Dose, Muscle: 1.02E−02 mGy/MBq
  Estimated Absorbed Dose, Osteogenic Cells: 1.54E−02 mGy/MBq
  Estimated Absorbed Dose, Ovaries: 1.40E−02 mGy/MBq
  Estimated Absorbed Dose, Pancreas: 1.35E−02 mGy/MBq
  Estimated Absorbed Dose, Red Marrow: 1.02E−02 mGy/MBq
  Estimated Absorbed Dose, Skin: 7.82E−03 mGy/MBq
  Estimated Absorbed Dose, Small Intestine: 3.38E−02 mGy/MBq
  Estimated Absorbed Dose, Spleen: 1.19E−02 mGy/MBq
  Estimated Absorbed Dose, Stomach Wall: 1.23E−02 mGy/MBq
  Estimated Absorbed Dose, Testes: 9.46E−03 mGy/MBq
  Estimated Absorbed Dose, Thymus: 1.16E−02 mGy/MBq
  Estimated Absorbed Dose, Thyroid: 1.02E−02 mGy/MBq
  Estimated Absorbed Dose, Total Body: 1.12E−02 mGy/MBq
  Estimated Absorbed Dose, ULI Wall: 1.52E−02 mGy/MBq
  Estimated Absorbed Dose, Urinary Bladder Wall: 1.37E−02 mGy/MBq
[2]; additional work with further mice
  critical organ: lower intestinal wall
[2]; female phantom, additional work with further mice (Table 2)
  whole-body effective dose: 23.7 μSv/MBq
[2]; female phantom, initial mouse study (Table 1)
  whole-body effective dose: 18.4 μSv/MBq
[2]; initial mouse study
  critical organ: adrenal gland
[2]; male phantom, additional work with further mice (Table 2)
  whole-body effective dose: 20.5 μSv/MBq
[2]; male phantom, initial mouse study (Table 1)
  whole-body effective dose: 15.3 μSv/MBq
